# Assay: in vivo delivery of bremelanotide by oral capsules (rats)
# Parameters: species or system rat
# Settings: oral capsules with patches, FIG. 8
# Method: The capsules of Examples 4-15 and Control 2, described above, were tested in vivo in a rat model. Capsules were administered by oral gavage administration using a dosing tool, followed by administration of 0.3 mL of water. Blood samples were drawn until 5 hours after administration and assayed for bremelanotide concentration as a function of time. FIGS. 5-8 illustrate the blood levels (pg/ml) of bremelanotide achieved (reported as the average from n=2 or 3 rats per formulation tested). […] The results illustrated in FIGS. 6 and 7 indicate that increasing the relative amount of penetration enhancer results in increased bremelanotide delivery.
structure (smiles),measurement,value
"CCCCCCCCCCCCO[C@@H]1O[C@H](CO)[C@@H](O[C@H]2O[C@H](CO)[C@@H](O)[C@H](O)[C@H]2O)[C@H](O)[C@H]1O [n-DMS, n-dodecyl-β-D-maltoside]",enhancer effect for bremelanotide through the GI tract,effective enhancers

# — patent US20180185440A1, “PHARMACEUTICAL COMPOSITIONS AND METHODS FOR DELIVERY OF BREMELANOTIDE” (NOVEN PHARMACEUTICALS, INC., priority 2016, published 2018)
